Measured values as given in patent US20250230193A1, “CYCLIC COMPOUND HAVING SELECTIVE KRAS INHIBITORY EFFECT ON HRAS AND NRAS” (CHUGAI SEIYAKU KABUSHIKI KAISHA, priority 2022, published 2025).
*1 amine or outer side, *2 acyl side, *3 side chain or, on linkers, in order; H or OH if unused. Where a SMILES comes first, the peptide text is derived from it. Bridges are numbered along the chain shown (N, C = ends). [ ]: non-standard residue; d: D form. The star is where a group is joined. hPhe(3-Cl-4-CF3) = N[C@@H](CCc1ccc(C(F)(F)F)c(Cl)c1)C(=O)O; X12 = COCCN([C@@H](Cc1ccc(C)cc1)C(=O)[*:2])[*:1]; NMeGly(cPent) = CN[C@H](C(=O)O)C1CCCC1; NMeD = CN[C@@H](CC(=O)O)C(=O)O; NMeL = CN[C@@H](CC(C)C)C(=O)O; Morpholide = C1CN(*)CCO1; NMeA = CN[C@@H](C)C(=O)O; Ac5c = NC1(C(=O)O)CCCC1; Aze = O=C(O)[C@@H]1CCN1; Sar = CNCC(=O)O

Tests used:
[1] = biological target: GDP-bound HRAS wild-type protein (Homo sapiens, UniProt P01112); assay: Binding to HRAS by surface plasmon resonance (SPR), Single Cycle Kinetics
[2] = biological target: GDP-bound NRAS wild-type protein (Homo sapiens, UniProt P01111); assay: Binding to NRAS by surface plasmon resonance (SPR), Single Cycle Kinetics
[3] = KD ratio HRAS/KRAS, class symbols
[4] = KD ratio NRAS/KRAS, class symbols

GDP-bound NRAS wild-type protein, sequence (P01111 whole entry): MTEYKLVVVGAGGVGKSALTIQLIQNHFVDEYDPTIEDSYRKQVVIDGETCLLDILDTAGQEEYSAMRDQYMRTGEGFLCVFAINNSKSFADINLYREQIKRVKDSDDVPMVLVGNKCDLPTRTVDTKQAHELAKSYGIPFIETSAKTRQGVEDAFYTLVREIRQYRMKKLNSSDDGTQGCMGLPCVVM
GDP-bound HRAS wild-type protein, sequence (P01112 whole entry): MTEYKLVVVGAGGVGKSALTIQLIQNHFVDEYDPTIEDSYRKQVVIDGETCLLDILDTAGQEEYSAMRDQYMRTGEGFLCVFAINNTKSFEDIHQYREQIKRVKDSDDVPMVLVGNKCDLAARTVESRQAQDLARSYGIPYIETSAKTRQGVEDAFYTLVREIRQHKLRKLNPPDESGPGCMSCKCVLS

SMILES: C#CC[C@H]1C(=O)N[C@@H]([C@@H](C)CC)C(=O)N(C)CC(=O)N(C)[C@H]2CCCCCN(C2=O)[C@@H](Cc2ccc(C(F)(F)F)cc2)C(=O)N(C)CC(=O)N[C@@H](CCc2cc(F)c(C(F)(F)F)c(F)c2)C(=O)N2C[C@H](OCC)C[C@H]2C(=O)NC2(CCC2)C(=O)N(C)[C@@H](C2CCCC2)C(=O)N(C)[C@H](C(=O)N2CCOCC2)CC(=O)N1C [PP0681]
- HRAS/KRAS (ratio of KD value with respect to GDP-bound HRAS wild-type protein to KD value with respect to KRAS) ([1]; KD ratio HRAS/KRAS, SPR): B (a compound having 3 or more and less than 10 is denoted as B)
- NRAS/KRAS (ratio of KD value with respect to GDP-bound NRAS wild-type protein to KD value with respect to KRAS) ([2]; KD ratio NRAS/KRAS, SPR): B (a compound having 3 or more and less than 10 is denoted as B)

SMILES: C#CC[C@H]1C(=O)N[C@@H]([C@@H](C)CC)C(=O)N(C)CC(=O)N(C)[C@H]2C/C=C\CCN(C2=O)[C@@H](Cc2ccc(C(F)(F)F)cc2)C(=O)N(C)CC(=O)N[C@@H](CCc2ccc(C(F)(F)F)c(Cl)c2)C(=O)N2C[C@H](OCC)C[C@H]2C(=O)NC2(CC(C)(C)C2)C(=O)N(C)[C@@H](C2CCCC2)C(=O)N(C)[C@H](C(=O)N(C)CC)CC(=O)N1C [PP2844]
- HRAS/KRAS (ratio of KD value with respect to GDP-bound HRAS wild-type protein to KD value with respect to KRAS) [1, 3]: A (a compound having 10 or more and less than 20 is denoted as A)
- NRAS/KRAS (ratio of KD value with respect to GDP-bound NRAS wild-type protein to KD value with respect to KRAS) [2, 4]: A (a compound having 10 or more and less than 20 is denoted as A)

SMILES: CCCOC[C@H]1C(=O)N[C@@H]([C@@H](C)CC)C(=O)N(C)CC(=O)N(C)[C@H]2C/C=C\CCN(C2=O)[C@@H](Cc2ccc(C)cc2)C(=O)N(C)CC(=O)N[C@@H](CCc2cc(F)c(C(F)(F)F)c(F)c2)C(=O)N2C[C@H](OCC)C[C@H]2C(=O)NC2(CC(C)(C)C2)C(=O)N(C)[C@@H](CC2CCC2)C(=O)N(C)[C@H](C(=O)N(C)C)CC(=O)N1C [PP2752]
- HRAS/KRAS (ratio of KD value with respect to GDP-bound HRAS wild-type protein to KD value with respect to KRAS) [1, 3]: A (a compound having 10 or more and less than 20 is denoted as A)
- NRAS/KRAS (ratio of KD value with respect to GDP-bound NRAS wild-type protein to KD value with respect to KRAS) [2, 4]: A (a compound having 10 or more and less than 20 is denoted as A)

SMILES: CC[C@H](C)[C@@H]1NC(=O)[C@H](CC(C)C)N(C)C(=O)C[C@@H](C(=O)N2CCOCC2)N(C)C(=O)[C@H](C2CCCC2)N(C)C(=O)C2(CCCC2)NC(=O)[C@@H]2CCCN2C(=O)[C@H](CCc2ccc(C(F)(F)F)c(Cl)c2)NC(=O)CN(C)C(=O)[C@H](Cc2ccc(C)cc2)N(CCOC)C(=O)[C@@H]2CCN2C(=O)[C@H](C)N(C)C1=O [PP0092] ([NMeL]I[NMeA][Aze][X12][Sar][hPhe(3-Cl-4-CF3)]P[Ac5c][NMeGly(cPent)][NMeD]-Morpholide; lactam N-11)
- HRAS/KRAS (ratio of KD for GDP-bound HRAS wild-type to KD for KRAS) ([1]; KD ratio HRAS/KRAS, SPR): C (A compound having a KD ratio of 0.1 or more and less than 3 is denoted as C)
- NRAS/KRAS (ratio of KD for GDP-bound NRAS wild-type to KD for KRAS) ([2]; KD ratio NRAS/KRAS, SPR): C (A compound having a KD ratio of 0.1 or more and less than 3 is denoted as C)

SMILES: CCO[C@@H]1C[C@H]2C(=O)NC3(CCC3)C(=O)N(C)[C@@H](C3CCCC3)C(=O)N(C)[C@H](C(=O)N3CCOCC3)CC(=O)N(C)[C@@H](COC)C(=O)N[C@@H]([C@@H](C)CC)C(=O)N(C)CC(=O)N(C)[C@H]3CCCCN(C3=O)[C@@H](Cc3ccc(C(F)(F)F)cc3)C(=O)N(C)CC(=O)N[C@@H](CCc3cc(F)c(C(F)(F)F)c(F)c3)C(=O)N2C1 [PP0719]
- HRAS/KRAS (ratio of KD value with respect to GDP-bound HRAS wild-type protein to KD value with respect to KRAS) ([1]; KD ratio HRAS/KRAS, SPR): B (a compound having 3 or more and less than 10 is denoted as B)
- NRAS/KRAS (ratio of KD value with respect to GDP-bound NRAS wild-type protein to KD value with respect to KRAS) ([2]; KD ratio NRAS/KRAS, SPR): C (A compound having a KD ratio of 0.1 or more and less than 3 is denoted as C)

SMILES: CCC[C@H]1C(=O)N[C@@H]([C@@H](C)CC)C(=O)N(C)CC(=O)N(C)[C@H]2C/C=C\CCN(C2=O)[C@@H](Cc2ccc(C(F)(F)F)cc2)C(=O)N(C)CC(=O)N[C@@H](CCc2ccc3c(C)cn(C)c3c2)C(=O)N2C[C@H](OCC)C[C@H]2C(=O)NC2(CC(C)(C)C2)C(=O)N(C)[C@@H](C(CC)CC)C(=O)N(C)[C@H](C(=O)N(C)C)CC(=O)N1C [PP2908]
- HRAS/KRAS (ratio of KD value with respect to GDP-bound HRAS wild-type protein to KD value with respect to KRAS) [1, 3]: A (a compound having 10 or more and less than 20 is denoted as A)
- NRAS/KRAS (ratio of KD value with respect to GDP-bound NRAS wild-type protein to KD value with respect to KRAS) [2, 4]: AA (a compound having 20 or more is denoted as AA)

SMILES: CCO[C@@H]1C[C@H]2C(=O)NC3(CC(C)(C)C3)C(=O)N(C)[C@@H](C(CC)CC)C(=O)N(C)[C@H](C(=O)N(C)C)CC(=O)N(C)[C@@H](CC)C(=O)N[C@@H]([C@@H](C)CC)C(=O)N(C)CC(=O)N(C)[C@H]3C/C=C\CCN(C3=O)[C@@H](Cc3ccc(C(F)(F)F)cc3)C(=O)N(C)CC(=O)N[C@@H](CCc3ccc(C(F)(F)F)c(OC)c3)C(=O)N2C1 [PP2066]
- HRAS/KRAS (ratio of KD value with respect to HRAS to KD value with respect to KRAS) ([1]; SPR, GDP-bound HRAS wild-type vs GDP-bound KRAS wild-type): B (a compound having 3 or more and less than 10 is denoted as B)
- NRAS/KRAS (ratio of KD value with respect to NRAS to KD value with respect to KRAS) ([2]; SPR, GDP-bound NRAS wild-type vs GDP-bound KRAS wild-type): A (a compound having 10 or more and less than 20 is denoted as A)
